Legend:
Format in all cases: ADME, organism-based
Parameters in all cases: dose 200 mg/kg, route oral
Details in all cases: in vivo
[1] = Drug excretion in Wistar rat urine treated with antroquinonol at 200 mg/kg, po administered via gavage measured after 24 hrs by HPLC-SPE-TT-NMR analysis
[2] = Drug excretion in Wistar rat urine assessed as (E)-6-((1R,2R,6R)-2-Hydroxy-3,4-dimethoxy-6-methyl-5-oxocyclo-hex-3-enyl)-4-methylhex-4-enoic acid level at 200 mg/kg, po administered via gavage measured after 24 hrs by HPLC-SPE-TT-NMR analysis
[3] = Drug excretion in Wistar rat urine assessed as (E)-6-((1R,2R,6R)-2-Hydroxy-3,4-dimethoxy-6-methyl-5-oxocyclo-hex-3-enyl)-4-methylhex-3-enoic acid level at 200 mg/kg, po administered via gavage measured after 24 hrs by HPLC-SPE-TT-NMR analysis
[4] = Drug excretion in Wistar rat urine assessed as (E)-6-((1R,2R ,6R)-2,5-Dihy droxy-4-methoxy-6-methyl-3-oxocyclo-hex-4-enyl)-4-methylhex-4-enoic acid level at 200 mg/kg, po administered via gavage measured after 24 hrs by HPLC-SPE-TT-NMR analysis
[5] = Drug excretion in Wistar rat urine assessed as (E)-6-((1R,2R ,6R)-2,5-Dihy droxy-4-methoxy-6-methyl-3-oxocyclo-hex-4-enyl)-4-methylhex-3-enoic acid level at 200 mg/kg, po administered via gavage measured after 24 hrs by HPLC-SPE-TT-NMR analysis

SMILES	Drug excretion [1]	further results
COC1=C(OC)[C@H](O)[C@H](C/C=C(\C)CCC(=O)O)[C@@H](C)C1=O	metabolite_detected	–
COC1=C(OC)[C@H](O)[C@H](CC/C(C)=C/CC(=O)O)[C@@H](C)C1=O	metabolite_detected	–
COC1=C(O)[C@H](C)[C@@H](CC/C(C)=C/CC(=O)O)[C@@H](O)C1=O	metabolite_detected	–
COC1=C(O)[C@H](C)[C@@H](C/C=C(\C)CCC(=O)O)[C@@H](O)C1=O	metabolite_detected	–
COC1=C(OC)[C@H](O)[C@H](C/C=C(\C)CC/C=C(\C)CCC=C(C)C)[C@@H](C)C1=O [ANTROQUINONOL]	–	Drug excretion [2]: metabolite_detected; Drug excretion [3]: metabolite_detected; Drug excretion [4]: metabolite_detected; Drug excretion [5]: metabolite_detected
